Measurements reported in ChEMBL document CHEMBL4699496, “Exploring efficacy of natural-derived acetylphenol scaffold inhibitors for α-glucosidase: Synthesis, in vitro and in vivo biochemical studies” (Bioorg Med Chem Lett, 2020).
Calls of active or inactive are those of the source. The calls are words filed in the database; no cut-off is given here.

Assays:
[1] = species: Rattus norvegicus; test: Inhibition of alpha-glucosidase in rat everted intestinal sleeves assessed as reduction in glucose concentration within intestinal sleeves at 0.5 mM measured for 5 to 90 mins; assay type: tissue-based; conditions: Intestine, time min 5-90
[2] = Inhibition of alpha-glucosidase (unknown origin); parameters: species or system Homo sapiens; conditions: read-out: IC50
[3] = species: Mus musculus; test: Hypoglycemic activity in Kunming mouse assessed as reduction in maltose-induced postprandial blood glucose level measured after 15 to 120 mins by maltose loading test; assay type: functional, organism-based; conditions: time min 15-120
[4] = species: Mus musculus; test: Hypoglycemic activity in Kunming mouse assessed as reduction in maltose-induced blood glucose AUC (0 to 120 mins) by maltose loading test; assay type: functional, organism-based; conditions: time min 0-120
[5] = species: Rattus norvegicus; test: Inhibition of alpha-glucosidase in rat everted intestinal sleeves assessed as reduction in glucose concentration outside of the intestinal sleeves at 0.5 mM measured after 5 to 90 mins; assay type: tissue-based; conditions: Intestine, time min 5-90
[6] = species: Rattus norvegicus; test: Inhibition of alpha-glucosidase in rat everted intestinal sleeves assessed as reduction in blood glucose AUC (0-90) within intestinal sleeves at 0.5 mM; assay type: tissue-based; conditions: Intestine, time min 0-90
[7] = species: Rattus norvegicus; test: Inhibition of alpha-glucosidase in rat everted intestinal sleeves assessed as reduction in blood glucose AUC (0-90) outside of the intestinal sleeves at 0.5 mM; assay type: tissue-based; conditions: Intestine, time min 0-90

inhibition [1]: Active
IC50 [2]: 57 µM
inhibition [5]: Active
inhibition [6]: Active
inhibition [7]: Active
Structure (SMILES): C[C@H]1O[C@H](O[C@H]2[C@H](O)[C@@H](O)[C@@H](O[C@H]3[C@H](O)[C@@H](O)C(O)O[C@@H]3CO)O[C@@H]2CO)[C@H](O)[C@@H](O)[C@@H]1N[C@H]1C=C(CO)[C@@H](O)[C@H](O)[C@H]1O (some centres not stated) [ACARBOSE]
Activity [3]: Active
Activity [4]: Active
